The record followed here is US9765075B2, “Substituted bridged urea analogs as sirtuin modulators” (GLAXOSMITHKLINE LLC, priority 2013, dated 2017).

The structures appear in SMILES notation. Read-outs that look alike come from different tables or passages of the source.

For the test, the target named is T1, SIRT1 (Homo sapiens, UniProt Q96EB6).
T1 sequence (Q96EB6 1-747): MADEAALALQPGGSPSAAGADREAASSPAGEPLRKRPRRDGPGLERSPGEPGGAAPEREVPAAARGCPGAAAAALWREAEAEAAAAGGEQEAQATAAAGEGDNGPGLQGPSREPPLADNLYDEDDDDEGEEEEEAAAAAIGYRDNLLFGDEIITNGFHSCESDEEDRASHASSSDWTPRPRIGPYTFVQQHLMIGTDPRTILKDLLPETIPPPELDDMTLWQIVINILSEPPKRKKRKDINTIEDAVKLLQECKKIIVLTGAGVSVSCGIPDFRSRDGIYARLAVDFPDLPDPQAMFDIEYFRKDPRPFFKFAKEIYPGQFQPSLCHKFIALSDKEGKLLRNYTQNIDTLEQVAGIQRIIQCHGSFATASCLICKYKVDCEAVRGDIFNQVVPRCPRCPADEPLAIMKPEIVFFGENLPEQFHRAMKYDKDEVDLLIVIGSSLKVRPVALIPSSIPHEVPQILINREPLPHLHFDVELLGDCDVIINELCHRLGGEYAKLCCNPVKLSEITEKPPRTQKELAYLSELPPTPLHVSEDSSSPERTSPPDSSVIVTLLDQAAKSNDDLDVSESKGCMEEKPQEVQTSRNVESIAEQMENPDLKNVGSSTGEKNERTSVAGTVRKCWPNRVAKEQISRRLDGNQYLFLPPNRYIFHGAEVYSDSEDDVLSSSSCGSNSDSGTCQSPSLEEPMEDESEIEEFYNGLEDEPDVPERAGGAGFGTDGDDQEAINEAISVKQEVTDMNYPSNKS
As to the kind of experiment: Trp mass spectrometry assay (SIRT1 activation). The test is classed as biochemical. As to conditions: for Emax: percent maximum fold activation of SIRT1, read-out: Tryp % Fold Act. The essentials: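 Activation is expressed as EC1.5, the concentration raising activity 50% above DMSO control, and as maximum percent of control. Mass-spec readout was OAADPR or deacetylated Trp peptide after a formic-acid-quenched 25-min, 25 °C reaction: 10 nM bacterially expressed His-SIRT1, 0.5 μM acetyl-p53-derived peptide, 120 μM NAD+, pH 7.5 HEPES with […].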

The mark [1] stands for this setting: Trp mass spectrometry assay, EC1.5 = concentration of test compound that results in 150% activation of SIRT1.
[2] abbreviates: concentration of test compound that results in 150% activation of SIRT1, Trp peptide substrate.
The mark [3] stands for this setting: Trp mass spectrometry assay, EC1.5 = concentration giving 150% activation of SIRT1.

For `CCN(CC)C(=O)N1c2nc(-c3cccc(C(F)(F)F)c3)ccc2N2CC[C@H]1C2` [Example 52], the “Tryp AVG EC1.5 (μM)” value under setting [1] is recorded as “C (EC1.5>25 μM)”. In addition, for the setting “Trp mass spectrometry assay”, the Emax is below 150%.
As for `O=C(Nc1cncc(F)c1)N1c2nc(N3CCCC(C(F)(F)F)C3)ccc2N2CCC[C@H]1C2` (stereo partly shown) [Example 290], under setting [2], the “Tryp AVG EC1.5 (μM)” value is “A (EC1.5<1 μM)”. Besides, the Emax (Trp peptide substrate) was at least 150%.
`O=C(Nc1cccnn1)N1c2nc(-c3cccc(N4CCOCC4)c3)ccc2N2CCC[C@H]1C2` [Example 539]: the “Tryp AVG EC1.5 (μM)” value under setting [2] is on record as “B (EC1.5 1-25 μM)”. Besides, where the note is “Trp peptide substrate”, the Emax was at least 150%.
`Cc1cnccc1NC(=O)N1c2nc(-c3cccc(Cl)c3)ccc2N2CC[C@H]1C2` [Example 44]: the Emax (Trp mass spectrometry assay) was at least 150%.
`Cc1nc(NC(=O)N2c3nc(-c4cccc(N(C)C)c4)ccc3N3CCC[C@@H]2C3)sc1C` [Example 252]: under setting [2], the “Tryp AVG EC1.5 (μM)” value is “C (EC1.5>25 μM)”. In addition, the Emax (Trp peptide substrate) was at least 150%.
Turning to `O=C(Nc1cc(OCC(O)CO)ccn1)N1c2nc(-c3cccc(C(F)(F)F)c3)ccc2N2CC[C@H]1C2` (stereo partly shown) [Example 53], the Emax (Trp mass spectrometry assay) was at least 150%.
For `Cc1cncc(-c2ccc3c(n2)N(C(=O)Nc2ccccn2)[C@H]2CCCN3C2)c1` [Example 504], the “Tryp AVG EC1.5 (μM)” value under setting [2] is reported as “A (EC1.5<1 μM)”. Besides, the Emax (Trp peptide substrate) is at least 150%.
The like results for `O=C(Nc1cnccn1)N1c2nc(-c3cccc(Cl)c3)ccc2N2CCC1CC2` [Example 543] were, in that order, “B (EC1.5 1-25 μM)” and at least 150%.
The matching figures for `O=C(Nc1cncc(F)c1)N1c2nc(-c3cccc(Cl)c3)ccc2N2CCC1CC2` [Example 521]: “B (EC1.5 1-25 μM)” and at least 150%.
The like results for `O=C1OC2(c3ccc(O)cc3Oc3cc(O)ccc32)c2ccc(NC(=S)NCc3cn(-c4cccc(NC(=O)N5c6nc(-c7cccc(C(F)(F)F)c7)ccc6N6CC[C@H]5C6)c4)nn3)cc21` [Example 608] were, in that order, “C (EC1.5>25 μM)” and below 150%.
Take `NCCCCCC(=O)NCc1cccc(NC(=O)N2c3nc(-c4cccc(C(F)(F)F)c4)ccc3N3CCC[C@H]2C3)c1` [Example 756]: under setting [3], the “Tryp AVG EC1.5 (μM)” value is given as “A (EC1.5<1 μM)”. The Emax (Trp mass spectrometry assay) is at least 150%.
Take `Cc1cnccc1NC(=O)N1c2nc(-c3cccc(C(F)(F)F)c3)ccc2N2CCC[C@H]1C2` [Example 37]: where the note is “Trp mass spectrometry assay”, the Emax was at least 150%.
As for `Cc1nc(NC(=O)N2c3nc(-c4cccc(Cl)c4)ccc3N3CCC2CC3)sc1C` [Example 569], the “Tryp AVG EC1.5 (μM)” value under setting [2] was “B (EC1.5 1-25 μM)”. Further, for the setting “Trp peptide substrate”, the Emax was at least 150%.
On to `N#Cc1cccc(-c2ccc3c(n2)N(C(=O)Nc2cccnc2)[C@H]2CCCN3C2)c1` [Example 350], for which the “Tryp AVG EC1.5 (μM)” value under setting [2] was “A (EC1.5<1 μM)”. Besides, the Emax (Trp peptide substrate) is at least 150%.
The like results for `COc1cc(NC(=O)N2c3nc(-c4cccc(N5CC[C@H](F)C5)c4)ccc3N3CC[C@H]2C3)ncn1` [Example 255] were, in that order, “B (EC1.5 1-25 μM)” and at least 150%.
As for `O=C(Nc1cccnn1)N1c2nc(-c3cccc(C(F)(F)F)c3)ccc2N2CCC1CC2` [Example 171], the “Tryp AVG EC1.5 (μM)” value under setting [1] is on record as “B (EC1.5 1-25 μM)”. Moreover, the Emax (Trp mass spectrometry assay) is at least 150%.
Take `CN1CCCN(c2ccc3c(n2)N(C(=O)Nc2ccncn2)[C@H]2CCCN3C2)CC1` [Example 484]: the “Tryp AVG EC1.5 (μM)” value under setting [2] is “C (EC1.5>25 μM)”. For the setting “Trp peptide substrate”, the Emax was below 150%.
Consider `CC(C)(C)OC(=O)NCc1cn(-c2cccc(NC(=O)N3c4nc(-c5cccc(C(F)(F)F)c5)ccc4N4CC[C@H]3C4)c2)nn1` [Example 605], for which, under setting [2], the “Tryp AVG EC1.5 (μM)” value is “A (EC1.5<1 μM)”. For the same compound, the Emax (Trp peptide substrate) is at least 150%.
`O=C(Nc1nnc(-c2ccccc2)s1)N1c2nc(-c3cccc(C(F)(F)F)c3)ccc2N2CC[C@H]1C2` [Example 648]: the “Tryp AVG EC1.5 (μM)” value under setting [3] is “A (EC1.5<1 μM)”. Besides, for the setting “Trp mass spectrometry assay”, the Emax was at least 150%.
For the compound `COc1cccc(-c2ccc3c(n2)N(C(=O)Nc2ccc(F)cn2)[C@@H]2CCN3C2)c1` [Example 205], under setting [1], the “Tryp AVG EC1.5 (μM)” value is “B (EC1.5 1-25 μM)”. Moreover, the Emax (Trp mass spectrometry assay) is at least 150%.
Consider `COc1cc(NC(=O)N2c3nc(-c4cccnc4)ccc3N3CCC[C@H]2C3)ncn1` [Example 442], for which the “Tryp AVG EC1.5 (μM)” value under setting [2] is listed as “B (EC1.5 1-25 μM)”. In addition, the Emax (Trp peptide substrate) was at least 150%.
The matching figures for `CN(C)c1cccc(-c2ccc3c(n2)N(C(=O)Nc2ccc(F)cn2)[C@@H]2CCCN3C2)c1` [Example 253]: “C (EC1.5>25 μM)” and below 150%.
On to `C#Cc1ccc(NC(=O)N2c3nc(-c4cccc(C5(C(F)(F)F)N=N5)c4)ccc3N3CC[C@H]2C3)nc1` [Example 803], for which the “Tryp AVG EC1.5 (μM)” value under setting [3] was “A (EC1.5<1 μM)”. Moreover, the Emax (Trp mass spectrometry assay) was at least 150%.
For `O=C(Nc1cc(-c2cnco2)ccn1)N1c2nc(-c3cccc(C(F)(F)F)c3)ccc2N2CC[C@H]1C2` [Example 589], the “Tryp AVG EC1.5 (μM)” value under setting [2] was “A (EC1.5<1 μM)”. Further, for the setting “Trp peptide substrate”, the Emax is at least 150%.
The matching figures for `O=C(Nc1cncc(F)c1)N1c2nc(-c3cccc(C(F)(F)F)c3)ccc2N2CCC1CC2` [Example 492]: “A (EC1.5<1 μM)” and at least 150%.
Turning to `O=C(Nc1cccc2nccnc12)N1c2nc(-c3cccc(C(F)(F)F)c3)ccc2N2CC[C@H]1C2` [Example 83], the “Tryp AVG EC1.5 (μM)” value under setting [1] is on record as “A (EC1.5<1 μM)”. The Emax (Trp mass spectrometry assay) is at least 150%.
In the case of `O=C(Nc1ccccn1)N1c2nc(-c3cc(Cl)cc(Cl)c3)ccc2N2CC[C@H]1C2` [Example 324], the “Tryp AVG EC1.5 (μM)” value under setting [2] is listed as “A (EC1.5<1 μM)”. For the same compound, the Emax (Trp peptide substrate) was at least 150%.
The matching figures for `CS(=O)(=O)c1cncc(-c2ccc3c(n2)N(C(=O)Nc2cnccn2)[C@H]2CCCN3C2)c1` [Example 378]: “A (EC1.5<1 μM)” and at least 150%.
For `COc1cc(NC(=O)N2c3nc(-c4cccc(C(F)(F)F)c4)ccc3N3CCC[C@H]2C3)ncn1` [Example 41], the Emax (Trp mass spectrometry assay) is at least 150%.
As to `O=C(Nc1cncc(F)c1)N1c2nc(-c3cncc(F)c3)ccc2N2CCC1CC2` [Example 571], under setting [2], the “Tryp AVG EC1.5 (μM)” value is “B (EC1.5 1-25 μM)”. The Emax (Trp peptide substrate) was at least 150%.
The like results for `O=C(Nc1ccncc1F)N1c2nc(-c3cccc(CC(O)CO)c3)ccc2N2CC[C@H]1C2` (stereo partly shown) [Example 357] were, in that order, “B (EC1.5 1-25 μM)” and at least 150%.
The like results for `COc1cc(NC(=O)N2c3nc(-c4cccc(Cl)c4)ccc3N3CCC2CC3)nc(OC)n1` [Example 523] were, in that order, “A (EC1.5<1 μM)” and at least 150%.
Take `Cn1ccc(NC(=O)N2c3nc(-c4cccc(C(F)(F)F)c4)ccc3N3CCC[C@H]2C3)n1` [Example 36]: for the setting “Trp mass spectrometry assay”, the Emax was at least 150%.
In the case of `Cc1cncc(NC(=O)N2c3nc(N4CCCC(C(F)(F)F)C4)ccc3N3CCC[C@@H]2C3)c1` (stereo partly shown) [Example 303], under setting [2], the “Tryp AVG EC1.5 (μM)” value is listed as “B (EC1.5 1-25 μM)”. The Emax (Trp peptide substrate) was at least 150%.
Turning to `COc1cc(NC(=O)N2c3nc(-c4cncc(C(F)(F)F)c4)ccc3N3C[C@@H](O)[C@H]2C3)nc(OC)n1` [Example 704], under setting [3], the “Tryp AVG EC1.5 (μM)” value is reported as “B (EC1.5 1-25 μM)”. Also, the Emax (Trp mass spectrometry assay) is at least 150%.
The like results for `CC(C)(C)OC(=O)NCC#Cc1cc(NC(=O)N2c3nc(-c4cccc(C(F)(F)F)c4)ccc3N3CCC[C@H]2C3)cc(-c2cnco2)c1` [Example 760] were, in that order, “A (EC1.5<1 μM)” and at least 150%.
The like results for `NCCCCCC(=O)NCc1cn(-c2cccc(NC(=O)N3c4nc(-c5cccc(C(F)(F)F)c5)ccc4N4CC[C@H]3C4)c2)nn1` [Example 639] were, in that order, “A (EC1.5<1 μM)” and at least 150%.
Turning to `Cc1cc(C)nc(NC(=O)N2c3nc(N4CCCC(C(F)(F)F)C4)ccc3N3CC[C@H]2C3)c1` (stereo partly shown) [Example 213], the “Tryp AVG EC1.5 (μM)” value under setting [1] is “B (EC1.5 1-25 μM)”. In addition, where the note is “Trp mass spectrometry assay”, the Emax was at least 150%.
For `O=C(Nc1cccc(C2(C(F)(F)F)N=N2)c1)N1c2nc(-c3cccc(C(F)(F)F)c3)ccc2N2CCC[C@H]1C2` [Example 335], the “Tryp AVG EC1.5 (μM)” value under setting [2] was “A (EC1.5<1 μM)”. Moreover, the Emax (Trp peptide substrate) is at least 150%.
Regarding `NC(=O)CN1CCC(c2cccc(NC(=O)N3c4nc(-c5cccc(C(F)(F)F)c5)ccc4N4CC[C@H]3C4)c2)C1` (stereo partly shown) [Example 594], the “Tryp AVG EC1.5 (μM)” value under setting [2] is “A (EC1.5<1 μM)”. For the same compound, the Emax (Trp peptide substrate) was at least 150%.
The matching figures for `COc1cc(NC(=O)N2c3nc(-c4cnccc4C)ccc3N3CCC[C@H]2C3)ncn1` [Example 511]: “C (EC1.5>25 μM)” and below 150%.
The like results for `O=C(Nc1cccc(-c2cnco2)c1)N1c2nc(-c3cccc(Cl)c3)ccc2N2CC[C@H]1C2` [Example 365] were, in that order, “A (EC1.5<1 μM)” and at least 150%.
